Experimental findings from PubChem BioAssay AID1259411 (Chemical Carcinogenesis Research Information System (CCRIS), 2018) are described below.

SMILES strings stand for the structures. The source made the active and inactive calls. The rule behind the calls is not given here.

For the data set, the system named is rodent carcinogenicity bioassays, tumor incidence. In words: CCRIS carcinogenicity studies. The note with it: Dose: 0, Dose: 0. The essentials:
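Archive of carcinogenicity, mutagenicity, tumor promotion and tumor inhibition results drawn from journals, NCI reports and other sources, expert-reviewed; covers 1985-2011 and is no longer updated.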

With `COc1ccc(C)cc1N`, the carcinogen call reads like this: (Species: MOUSE, Strain/Sex: B6C3F1/FEMALE, Route: ORAL, 0.22, 0.44% TWA, IN DIET FOR 104 WK (STUDY DURATION: 97-106 WK), 0.22, 0.44% TWA, IN DIET FOR 104 WK (STUDY DURATION: 97-106 WK), Tumor Site: Type of Lesion: LIVER: HEPATOCELLULAR CARCINOMA, HEPATOCELLULAR CARCINOMA OR ADENOMA, URINARY BLADDER: TRANSITIONAL CELL CARCINOMA OR CA) “active; positive”; (Species: MOUSE, Strain/Sex: B6C3F1/MALE, Route: ORAL, 0.22, 0.46% TWA, IN DIET FOR 92-104 WK (STUDY DURATION: 92-106 WK), 0.22, 0.46% TWA, IN DIET FOR 92-104 WK (STUDY DURATION: 92-106 WK), Tumor Site: Type of Lesion: URINARY BLADDER: SQUAMOUS CELL CARCINOMA OR TRANSITIONAL CELL CARCINOMA) “active; positive”; (Species: RAT, Strain/Sex: F344/FEMALE, Route: ORAL, 0.5, 1.0% IN DIET FOR 104 WK (STUDY DURATION: 106 WK), 0.5, 1.0% IN DIET FOR 104 WK (STUDY DURATION: 106 WK), Tumor Site: Type of Lesion: NASAL CAVITY: OLFACTORY NEUROBLASTOMA, URINARY BLADDER: NEOPLASM (NOS) OR PAPILLARY CARCINOMA OR SQUAMOUS CELL CARCINOMA) “active; positive”; (Species: RAT, Strain/Sex: F344/MALE, Route: ORAL, 0.5, 1.0% IN DIET FOR 104 WK (STUDY DURATION: 105-106 WK), 0.5, 1.0% IN DIET FOR 104 WK (STUDY DURATION: 105-106 WK), Tumor Site: Type of Lesion: NASAL CAVITY: NEUROBLASTOMA OR OLFACTORY NEUROBLASTOMA, LIVER: NEOPLASTIC NODULE OR HEPATOCELLULAR CARCINOMA OR MIXED HE) “active; positive”.
`O=CC(=O)C[C@H](O)[C@H](O)CO`: the carcinogen call (Species: MOUSE, Strain/Sex: CD-1/FEMALE, Route: DERMAL, 20 UMOL/0.1 ML DMSO 2/WK FOR 5 WK FOLLOWED 1 WK LATER BY 0.1 ML ACETONE 2/WK FOR 47 WK (STUDY DURATION: 52 WK)) is “inactive; negative”.
For `O=[N+]([O-])c1cccc2c1-c1cccc3c([N+](=O)[O-])ccc-2c13`, the carcinogen call by setting is: (Species: RAT, Strain/Sex: F344/DUCRJ/MALE, Route: PULMONARY IMPLANT, 0.2 MG AS A SUSPENSION IN EQUAL VOL OF BEESWAX AND TRICAPRYLIN IMPLANTED IN LEFT LUNG (STUDY DURATION: 70 WK), Tumor Site: Type of Lesion: LUNG: TUMOR) “active; positive”; (Species: RAT, Strain/Sex: F344/MALE, Route: LUNG IMPLANT, 200 UG IN BEESWAX/TRICAPRYLIN INTO LOWER LEFT LUNG ONCE (STUDY DURATION: 100 WK), Tumor Site: Type of Lesion: LUNG: SQUAMOUS CELL CARCINOMA) “active; positive”; (Species: RAT, Strain/Sex: F344/MALE, Route: PULMONARY IMPLANT, 200 UG IN 50 µL BEESWAX/TRICAPRYLIN IMPLANTED FOR UP TO 100 WK (STUDY DURATION: 100 WK), Tumor Site: Type of Lesion: LUNG: TUMOR) “active; positive”.
With `COCC(=O)N(c1c(C)cccc1C)C(C)C(=O)OC` (centres undefined), the carcinogen call by setting is: (Species: Mouse, Strain/Sex: ICI Alderly Park (Swiss strain origin)/Female (60/Group), Route: Oral, 50, 250, 1250 ppm of 93.8-95.2% metalaxyl in diet for 104 wk, study duration 104 wk, 50, 250, 1250 ppm of 93.8-95.2% metalaxyl in diet for 104 wk, study duration 104 wk) “inactive; negative”; (Species: Mouse, Strain/Sex: ICI Alderly Park (Swiss strain origin)/Male (60/Group), Route: Oral, 50, 250, 1250 ppm of 93.8-95.2% metalaxyl in diet for 104 wk, study duration 104 wk, 50, 250, 1250 ppm of 93.8-95.2% metalaxyl in diet for 104 wk, study duration 104 wk) “inactive; negative”; (Species: Rat, Strain/Sex: CD (Sprague-Dawley derived)/Female (70/Group), Route: Oral, 50, 250, 1250 ppm of 93% metalaxyl in diet for 105 wk, study duration 105 wk, 50, 250, 1250 ppm of 93% metalaxyl in diet for 105 wk, study duration 105 wk, Tumor Site: Type of Lesion: Thyroid: follicular cell adenoma) “active; positive”; (Species: Rat, Strain/Sex: CD (Sprague-Dawley derived)/Male (70/Group), Route: Oral, 50, 250, 1250 ppm of 93% metalaxyl in diet for 105 wk, study duration 105 wk, 50, 250, 1250 ppm of 93% metalaxyl in diet for 105 wk, study duration 105 wk) “inactive; negative”.
In the case of `COc1ccc2c3c1O[C@H]1[C@@H](O)C=C[C@H]4[C@@H](C2)N(C)CC[C@@]341`, the carcinogen call by setting is: (Species: MOUSE, Strain/Sex: B6C3F1/FEMALE, Route: ORAL, 750, 1500, 3000 PPM IN DIET FOR UP TO 106 WK (STUDY DURATION: 106 WK), 750, 1500, 3000 PPM IN DIET FOR UP TO 106 WK (STUDY DURATION: 106 WK)) “inactive; negative”; (Species: MOUSE, Strain/Sex: B6C3F1/MALE, Route: ORAL, 750, 1500, 3000 PPM IN DIET FOR UP TO 106 WK (STUDY DURATION: 106 WK), 750, 1500, 3000 PPM IN DIET FOR UP TO 106 WK (STUDY DURATION: 106 WK)) “inactive; negative”; (Species: RAT, Strain/Sex: F344/FEMALE, Route: ORAL, 400, 800, 1600 PPM IN DIET FOR UP TO 106 WK (STUDY DURATION: 106 WK), 400, 800, 1600 PPM IN DIET FOR UP TO 106 WK (STUDY DURATION: 106 WK)) “inactive; negative”; (Species: RAT, Strain/Sex: F344/MALE, Route: ORAL, 400, 800, 1600 PPM IN DIET FOR UP TO 106 WK (STUDY DURATION: 106 WK), 400, 800, 1600 PPM IN DIET FOR UP TO 106 WK (STUDY DURATION: 106 WK)) “inactive; negative”.
Turning to `C=C(C)C`, the carcinogen call (Species: MOUSE, Strain/Sex: B6C3F1/FEMALE, Route: INHALATION, 500, 2000, 8000 PPM 6 HR/D 5 D/WK FOR 105 WK (STUDY DURATION: 105 WK), 500, 2000, 8000 PPM 6 HR/D 5 D/WK FOR 105 WK (STUDY DURATION: 105 WK)) was “inactive; negative”; the carcinogen call (Species: MOUSE, Strain/Sex: B6C3F1/MALE, Route: INHALATION, 500, 2000, 8000 PPM 6 HR/D 5 D/WK FOR 105 WK (STUDY DURATION: 105 WK), 500, 2000, 8000 PPM 6 HR/D 5 D/WK FOR 105 WK (STUDY DURATION: 105 WK)) was “inactive; negative”; the carcinogen call (Species: RAT, Strain/Sex: F344/N/FEMALE, Route: INHALATION, 500, 2000, 8000 PPM 6 HR/D 5 D/WK FOR 105 WK (STUDY DURATION: 105 WK), 500, 2000, 8000 PPM 6 HR/D 5 D/WK FOR 105 WK (STUDY DURATION: 105 WK)) is “inactive; negative”; the carcinogen call (Species: RAT, Strain/Sex: F344/N/MALE, Route: INHALATION, 500, 2000;8000 PPM 6 HR/D 5 D/WK FOR 105 WK (STUDY DURATION: 105 WK), 500, 2000;8000 PPM 6 HR/D 5 D/WK FOR 105 WK (STUDY DURATION: 105 WK), Tumor Site: Type of Lesion: THYROID GLAND: FOLLICULAR CELL CARCINOMA) was “equivocal”.
Regarding `CCCc1cc2ccccc2c2ccc3c(c12)C1OC1C(O)C3O` (centres undefined), the carcinogen call was “inactive; negative” (Species: MOUSE, Strain/Sex: ICR/FEMALE, Route: INTRAPERITONEAL, 8 NMOL IN 5 µL DMSO ON D 1, 16 NMOL IN 10 µL ON D 8 AND 32 NMOL IN 20 µL ON D 15 OF LIFE (STUDY DURATION: 35 WK)) and “inactive; negative” (Species: MOUSE, Strain/Sex: ICR/MALE, Route: INTRAPERITONEAL, 8 NMOL IN 5 µL DMSO ON D 1, 16 NMOL IN 10 µL ON D 8 AND 32 NMOL IN 20 µL ON D 15 OF LIFE (STUDY DURATION: 35 WK)).
Turning to `CCCCNC(=O)n1c(NC(=O)OC)nc2ccccc21`, the carcinogen call is “active; positive; purity 99%; additional study details in california epa department of p” (Species: Mouse, Strain/Sex: CD-1/Female (80/group), Route: Oral, 500, 1500, 7500 for 37 wk reduced to 5000 ppm in feed for 2 yr, 500, 1500, 7500 for 37 wk reduced to 5000 ppm in feed for 2 yr, Tumor Site: Type of Lesion: Liver: Hepatocellular adenoma (2/64, 2/60, 7/73, 7/68), Hepatocellular carcinoma (2/64, 7/60, 6/73, 14/68), Combined (4/, Tumor Site: Type of Lesion: Liver: Hepatocellular adenoma (2/64, 2/60, 7/73, 7/68), Hepatocellular carcinoma (2/64, 7/60, 6/73, 14/68), Combined (4/) and “active; positive; purity 99%; additional study details in california epa department of p” (Species: Mouse, Strain/Sex: CD-1/Male (80/group), Route: Oral, 500, 1500, 7500 for 37 wk reduced to 5000 ppm in feed for 2 yr, 500, 1500, 7500 for 37 wk reduced to 5000 ppm in feed for 2 yr, Tumor Site: Type of Lesion: Liver: Hepatocellular adenoma (9/60, 9/75, 11/73, 10/76), Hepatocellular carcinoma (16/60, 26/75, 41/73, 17/76), Combine, Tumor Site: Type of Lesion: Liver: Hepatocellular adenoma (9/60, 9/75, 11/73, 10/76), Hepatocellular carcinoma (16/60, 26/75, 41/73, 17/76), Combine).
